Assay: xn = mol fraction of the nth substance listed
Settings: 101 kPa, Liquid; for mass density: Vibrating tube method

CCCC[n+]1ccccc1.F[B-](F)(F)F [1-butylpyridinium tetrafluoroborate] + CCO
Settings | kinematic viscosity, 303.15 K [m2/s] | kinematic viscosity, 313.15 K [m2/s] | kinematic viscosity, 323.15 K [m2/s] | mass density, 303.15 K [kg/m3] | mass density, 313.15 K [kg/m3] | mass density, 323.15 K [kg/m3]
x1 = 0.0482 | 1.42e-06 | 1.29e-06 | 1.15e-06 | 843.38 | 834.98 | 826.69
x1 = 0.0945 | 1.96e-06 | 1.68e-06 | 1.41e-06 | 892.42 | 884.28 | 876.45
x1 = 0.1932 | 3.17e-06 | 2.57e-06 | 2.06e-06 | 972.49 | 964.73 | 957.44
x1 = 0.2702 | 4.37e-06 | 3.45e-06 | 2.73e-06 | 1019.05 | 1011.49 | 1004.32
x1 = 0.3959 | 7.13e-06 | 5.43e-06 | 4.24e-06 | 1076.24 | 1068.89 | 1061.7
x1 = 0.4954 | 1.03e-05 | 7.61e-06 | 5.94e-06 | 1110.49 | 1103.28 | 1096.06
x1 = 0.5999 | 1.57e-05 | 1.14e-05 | 8.55e-06 | 1139.33 | 1132.29 | 1125.08
x1 = 0.699 | 2.36e-05 | 1.65e-05 | 1.2e-05 | 1161.67 | 1154.79 | 1147.65
x1 = 0.7963 | 3.58e-05 | 2.41e-05 | 1.7e-05 | 1179.99 | 1173.24 | 1166.21
x1 = 0.8477 | 4.48e-05 | 2.95e-05 | 2.05e-05 | 1188.5 | 1181.82 | 1174.82
x1 = 0.8984 | 5.83e-05 | 3.73e-05 | 2.53e-05 | 1196.25 | 1189.62 | 1182.65
x1 = 0.9461 | 7.37e-05 | 4.58e-05 | 3.05e-05 | 1203.06 | 1196.46 | 1189.47
